Laboratory results taken from patent EP2970215B1, “PYRROLIDINE DERIVATIVES, PHARMACEUTICAL COMPOSITIONS CONTAINING THEM, AND THEIR USE IN THERAPY” (AbbVie Deutschland GmbH & Co. KG, priority 2013, dated 2014).

Molecular target: T1, human GlyT1c transporter (Homo sapiens, UniProt P48067)
T1 construct: expressed in transfected cells; host or cells: CHO cells (recombinant; line hGlyT1c_5_CHO is named for the uptake assay)
T1 sequence (P48067 1-706): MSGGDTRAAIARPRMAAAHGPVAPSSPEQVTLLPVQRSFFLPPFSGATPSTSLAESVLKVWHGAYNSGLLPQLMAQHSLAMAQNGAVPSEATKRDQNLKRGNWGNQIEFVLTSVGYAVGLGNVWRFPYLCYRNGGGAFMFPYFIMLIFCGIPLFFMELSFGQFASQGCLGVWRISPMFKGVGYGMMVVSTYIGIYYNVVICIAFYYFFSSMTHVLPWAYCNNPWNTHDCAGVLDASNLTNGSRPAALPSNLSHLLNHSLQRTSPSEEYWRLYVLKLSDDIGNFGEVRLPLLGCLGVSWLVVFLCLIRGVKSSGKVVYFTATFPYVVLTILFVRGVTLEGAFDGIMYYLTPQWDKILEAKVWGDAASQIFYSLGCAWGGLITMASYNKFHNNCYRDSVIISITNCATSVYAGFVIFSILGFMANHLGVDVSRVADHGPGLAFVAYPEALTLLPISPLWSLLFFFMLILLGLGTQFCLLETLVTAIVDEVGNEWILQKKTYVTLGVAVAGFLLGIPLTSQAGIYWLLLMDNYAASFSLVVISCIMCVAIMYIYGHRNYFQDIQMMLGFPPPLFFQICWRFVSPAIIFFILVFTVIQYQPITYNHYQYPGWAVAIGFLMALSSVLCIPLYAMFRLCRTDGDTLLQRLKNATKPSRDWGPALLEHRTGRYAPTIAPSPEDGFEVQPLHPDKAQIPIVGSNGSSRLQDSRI
Assay: Radioligand binding assay using recombinant CHO cell membranes expressing human GlyT1
Conditions: radioligand binding to human GlyT1c transporter-expressing membranes
Text: 2. Radioligand binding assays using recombinant CHO cell membranes expressing human GlyT1: […]

Row | SMILES | Ki [nM]
1 | Cn1cnc(S(=O)(=O)N2C[C@H](NCC3(C)CCOCC3)[C@@H](c3ccccc3)C2)c1 [Example 429, (3R,4S)-1-[(1-methyl-1H-imidazol-4-yl)sulfonyl]-N-[(4-methyltetrahydro-2H-pyran-4-yl)methyl]-4-phenylpyrrolidin-3-amine] | > 10000
2 | Cn1cnc(S(=O)(=O)N2C[C@@H](C(=O)Nc3ccc(Cl)c(OC(F)(F)F)c3)[C@H](c3ccc(F)cc3)C2)c1 (relative stereo) [Example 371, Trans-N-[4-chloro-3-(trifluoromethoxy)phenyl]-4-(4-fluorophenyl)-1-[(1-methyl-1H-imidazol-4-yl)sulfonyl]pyrrolidine-3-carboxamide] | ≤ 1000
3 | N#Cc1cccc(N[C@@H]2CN(S(=O)(=O)CC3CC3)C[C@H]2c2ccccc2)c1 (relative stereo) [Example 133, 3-({trans-1-[(cyclopropylmethyl)sulfonyl]-4-phenylpyrrolidin-3-yl}amino)benzonitrile] | ≤ 10000
4 | Cn1cnc(S(=O)(=O)N2C[C@@H](Nc3ccc(F)c(Cl)c3)[C@H](c3ccccc3Cl)C2)c1 (relative stereo) [Example 257, trans-N-(3-chloro-4-fluorophenyl)-4-(2-chlorophenyl)-1-[(1-methyl-1H-imidazol-4-yl)sulfonyl]pyrrolidin-3-amine] | ≤ 100
5 | Cn1cnc(S(=O)(=O)N2C[C@@H](NC(=O)c3ccc(C(F)(F)F)cc3)[C@H](c3ccc(F)cc3)C2)c1 (relative stereo) [Example 64, N-{trans-4-(4-fluorophenyl)-1-[(1-methyl-1H-imidazol-4-yl)sulfonyl]pyrrolidin-3-yl}-4-(trifluoromethyl)benzamide] | ≤ 100
6 | Cn1cnc(S(=O)(=O)N2C[C@@H](Nc3cccc(OC(F)(F)F)c3)[C@H](C3CCCCC3)C2)c1 (relative stereo) [Example 425, Trans-4-cyclohexyl-1-[(1-methyl-1H-imidazol-4-yl)sulfonyl]-N-[3-(trifluoromethoxy)phenyl]pyrrolidin-3-amine] | ≤ 10
7 | Cn1cnc(S(=O)(=O)N2C[C@@H](NC(=O)c3cccc(C(F)(F)F)c3Cl)[C@H](c3ccccc3)C2)c1Cl (relative stereo) [Example 48, 2-chloro-N-{trans-1-[(5-chloro-1-methyl-1H-imidazol-4-yl)sulfonyl]-4-phenylpyrrolidin-3-yl}-3-(trifluoromethyl)benzamide] | ≤ 10000
8 | Cn1cnc(S(=O)(=O)N2C[C@@H](CNc3ccc(C(F)(F)F)cc3Cl)[C@H](c3ccc(F)cc3)C2)c1 (relative stereo) [Example 332, 2-Chloro-N-({trans-4-(4-fluorophenyl)-1-[(1-methyl-1H-imidazol-4-yl)sulfonyl]pyrrolidin-3-yl}methyl)-4-(trifluoromethyl)aniline] | ≤ 100
9 | Cn1cnc(S(=O)(=O)N2C[C@H](NCc3c(Cl)cncc3Cl)[C@@H](c3ccccc3)C2)c1 [Example 432, (3R,4S)-N-[(3,5-dichloropyridin-4-yl)methyl]-1-[(1-methyl-1H-imidazol-4-yl)sulfonyl]-4-phenylpyrrolidin-3-amine] | ≤ 10000
10 | Cn1cnc(S(=O)(=O)N2C[C@@H](Nc3cc(F)ccc3F)[C@H](c3ccc(F)cc3)C2)c1 (relative stereo) [Example 164, trans-N-(2,5-difluorophenyl)-4-(4-fluorophenyl)-1-[(1-methyl-1H-imidazol-4-yl)sulfonyl]pyrrolidin-3-amine] | ≤ 10000
11 | Cn1cnc(S(=O)(=O)N2C[C@H](Nc3cc(F)ccn3)[C@@H](c3ccccc3)C2)c1 [Example 405, 4-fluoro-N-{(3R,4S)-1-[(1-methyl-1H-imidazol-4-yl)sulfonyl]-4-phenylpyrrolidin-3-yl}pyridin-2-amine] | ≤ 1000
12 | Cn1cnc(S(=O)(=O)N2C[C@H](NCCCC(F)(F)F)[C@@H](c3ccccc3)C2)c1 [Example 426, (3R,4S)-1-[(1-methyl-1H-imidazol-4-yl)sulfonyl]-4-phenyl-N-(4,4,4-trifluorobutyl)pyrrolidin-3-amine] | ≤ 1000
13 | Cn1cnc(S(=O)(=O)N2C[C@@H](NC(=O)c3cccc(C(F)(F)F)c3Cl)[C@H](c3cccc(F)c3)C2)c1 (relative stereo) [Example 55, 2-chloro-N-{trans-4-(3-fluorophenyl)-1-[(1-methyl-1H-imidazol-4-yl)sulfonyl]pyrrolidin-3-yl}-3-(trifluoromethyl)benzamide] | ≤ 1000
14 | Cn1cnc(S(=O)(=O)N2C[C@@H](Nc3ccc(F)c(F)c3F)[C@H](c3ccc(F)cc3)C2)c1 (relative stereo) [Example 166, trans-4-(4-fluorophenyl)-1-[(1-methyl-1H-imidazol-4-yl)sulfonyl]-N-(2,3,4-trifluorophenyl)pyrrolidin-3-amine] | ≤ 1000
15 | Cn1cnc(S(=O)(=O)N2C[C@@H](Nc3cc(C#N)ccc3Cl)[C@H](c3ccccc3)C2)c1 (relative stereo) [Example 81, 4-chloro-3-({trans-1-[(1-methyl-1H-imidazol-4-yl)sulfonyl]-4-phenylpyrrolidin-3-yl}amino)benzonitrile] | ≤ 10000
16 | Cn1cnc(S(=O)(=O)N2C[C@@H](Nc3ccc(C#N)cc3)[C@H](c3ccccc3)C2)c1 (relative stereo) [Example 52, 4-({trans-1-[(1-methyl-1H-imidazol-4-yl)sulfonyl]-4-phenylpyrrolidin-3-yl}amino)benzonitrile] | ≤ 10000
17 | Cn1cnc(S(=O)(=O)N2C[C@@H](COc3ccc(F)cc3)[C@H](c3ccc(F)cc3)C2)c1 (relative stereo) [Example 348, 4-{[Trans-3-[(4-fluorophenoxy)methyl]-4-(4-fluorophenyl)pyrrolidin-1-yl]sulfonyl}-1-methyl-1H-imidazole] | ≤ 100
18 | Cn1cnc(S(=O)(=O)N2C[C@@H](Nc3ccc(C#N)c(F)c3)[C@H](c3ccc(F)cc3)C2)c1 (relative stereo) [Example 342, 2-fluoro-4-({trans-4-(4-fluorophenyl)-1-[(1-methyl-1H-imidazol-4-yl)sulfonyl]pyrrolidin-3-yl}amino)benzonitrile] | ≤ 10000

Now from value to compound:

Row | Ki [nM] | SMILES
19 | ≤ 10000 | O=S(=O)(CC1CCCCO1)N1CC(Nc2ccc(F)c(F)c2)C(c2ccccc2)C1 (stereo not drawn) [Example 498, N-(3,4-difluorophenyl)-4-phenyl-1-[(tetrahydro-2H-pyran-2-ylmethyl)sulfonyl]pyrrolidin-3-amine]
20 | ≤ 10000 | COCCCCN[C@H]1CN(S(=O)(=O)c2cn(C)cn2)C[C@@H]1c1ccccc1 [Example 647, (3R,4S)-N-(4-methoxybutyl)-1-[(1-methyl-1H-imidazol-4-yl)sulfonyl]-4-phenylpyrrolidin-3-amine]
21 | ≤ 1000 | Cn1cnc(S(=O)(=O)N2C[C@H](Nc3ccc(Cl)c(C(F)(F)F)c3)[C@@H](C3CCCO3)C2)c1 (stereo partly drawn) [Example 619, (3R,4S)-N-[4-chloro-3-(trifluoromethyl)phenyl]-1-[(1-methyl-1H-imidazol-4-yl)sulfonyl]-4-(tetrahydrofuran-2-yl)pyrrolidin-3-amine]
22 | ≤ 100 | Cn1cnc(S(=O)(=O)N2C[C@@H](Nc3ccc(F)c(Cl)c3)[C@H](c3ncccc3F)C2)c1 (relative stereo) [Example 771, Trans-N-(3-chloro-4-fluorophenyl)-4-(3-fluoropyridin-2-yl)-1-[(1-methyl-1H-imidazol-4-yl)sulfonyl]pyrrolidin-3-amine]
23 | ≤ 100 | Cn1cnc(S(=O)(=O)N2C[C@H](Nc3cc(Cl)ncn3)[C@@H](c3ccc(F)cc3)C2)c1 [Example 691, 6-chloro-N-{(3R,4S)-4-(4-fluorophenyl)-1-[(1-methyl-1H-imidazol-4-yl)sulfonyl]pyrrolidin-3-yl}pyrimidin-4-amine]
24 | ≤ 100 | Cn1cnc(S(=O)(=O)N2C[C@H](NCCCc3cccc(Cl)c3)[C@@H](c3ccccc3)C2)c1 [Example 471, (3R,4S)-N-[3-(3-chlorophenyl)propyl]-1-[(1-methyl-1H-imidazol-4-yl)sulfonyl]-4-phenylpyrrolidin-3-amine]

Same assay, conditions: radioligand binding, recombinant CHO cell membranes expressing human GlyT1c

Row | SMILES | Ki [nM]
25 | Cn1cc(S(=O)(=O)N2C[C@@H](Nc3cccc(OCC(F)(F)F)c3)[C@H](c3ccc(F)cc3)C2)nn1 (relative stereo) [Example 836, trans-4-(4-fluorophenyl)-1-[(1-methyl-1H-1,2,3-triazol-4-yl)sulfonyl]-N-[3-(2,2,2-trifluoroethoxy)phenyl]pyrrolidin-3-amine] | ≤ 10
26 | Cn1cnc(S(=O)(=O)N2C[C@@H](Nc3ccc(F)c(C(F)(F)F)c3)[C@H](C3CCCCO3)C2)c1 (relative stereo) [Example 846, Trans-N-[4-fluoro-3-(trifluoromethyl)phenyl]-1-[(1-methyl-1H-imidazol-4-yl)sulfonyl]-4-(tetrahydro-2H-pyran-2-yl)pyrrolidin-3-amine] | ≤ 100
27 | Cc1cc(N[C@@H]2CN(S(=O)(=O)c3cn(C)cn3)C[C@H]2C2CCCCO2)ncc1F (relative stereo) [Example 852, 5-Fluoro-4-methyl-N-[trans-1-[(1-methyl-1H-imidazol-4-yl)sulfonyl]-4-(tetrahydro-2H-pyran-2-yl)pyrrolidin-3-yl]pyridin-2-amine] | ≤ 1000
